Assay results published in patent US20240423992A1, “BIOMARKERS FOR TREATING LIVER DISORDERS WITH THR-B AGONISTS AND RELATED USES” (Madrigal Pharmaceuticals, Inc., priority 2023, published 2024).

Tests used:
[1] = system: patients with Nonalcoholic Steatohepatitis; assay: Phase 3 trial in Nonalcoholic Steatohepatitis (Example 2): sex hormone levels; assay type: in vivo, human; conditions: for Estradiol (female) LS Mean Difference / Estradiol (male) LS Mean Difference / FSH (female) LS Mean Difference / FSH (male) LS Mean Difference / Free testosterone (female) LS Mean Difference / Free testosterone (male) LS Mean Difference / LH (female) LS Mean Difference / LH (male) LS Mean Difference / SHBG (female) LS Mean Difference in % CFB / SHBG (female) LS Mean Difference in CFB / SHBG (male) LS Mean Difference in % CFB / SHBG (male) LS Mean Difference in CFB / SHBG LS Mean Difference in % CFB / SHBG LS Mean Difference in CFB / Testosterone (female) LS Mean Difference / Testosterone (male) LS Mean Difference / Estradiol (female) LS Mean CFB (SE) / Estradiol (male) LS Mean CFB (SE) / FSH (female) LS Mean CFB (SE) / FSH (male) LS Mean CFB (SE) / Free testosterone (female) LS Mean CFB (SE) / Free testosterone (male) LS Mean CFB (SE) / LH (female) LS Mean CFB (SE) / LH (male) LS Mean CFB (SE) / SHBG (female) LS Mean % CFB (SE) / SHBG (female) LS Mean CFB (SE) / SHBG (male) LS Mean % CFB (SE) / SHBG (male) LS Mean CFB (SE) / SHBG LS Mean % CFB (SE) / SHBG LS Mean CFB (SE) / Testosterone (female) LS Mean CFB (SE) / Testosterone (male) LS Mean CFB (SE): Week 52
Protocol: (§1) A randomized, double-blind, placebo-controlled Phase 3 trial was conducted. Patients were randomly assigned to receive resmetirom 80 mg, resmetirom 100 mg, or placebo administered orally once daily. Screening biopsy results were used as baseline for histologic variables and a second biopsy was performed at Week 52.

[2] = system: patients with Nonalcoholic Steatohepatitis; assay: Phase 3 trial in Nonalcoholic Steatohepatitis (Example 2): thyroid hormone levels; assay type: in vivo, human; conditions: Resmetirom 80 mg, Week 52
Protocol: as §1

- FT3/rT3 CFB, LS Mean Difference from PBO [2]: 0.06
- FT3/rT3 LS Mean CFB (SE) [2]: 0.06 (0.004)
- FT3 CFB, LS Mean Difference from PBO [2]: 0.02 ng/L
- FT3 LS Mean CFB (SE) [2]: −0.01 (0.030) ng/L
- FT4 % CFB, LS Mean Difference from PBO [2]: −16.6%
- FT4 CFB, LS Mean Difference from PBO [2]: -0.19 ng/dL
- FT4 LS Mean % CFB (SE) [2]: −13.9 (0.96) %
- FT4 LS Mean CFB (SE) [2]: −0.17 (0.011) ng/dL
- TBG CFB, LS Mean Difference from PBO [2]: -1.9 mg/L
- TBG LS Mean CFB (SE) [2]: −0.32 (0.45) mg/L
- TSH CFB, LS Mean Difference from PBO [2]: −0.18 mIU/L
- TSH LS Mean CFB (SE) [2]: −0.28 (0.059) mIU/L
- rT3 CFB, LS Mean Difference from PBO [2]: -4.73 ng/dL
Structure (SMILES): CC(C)c1cc(Oc2c(Cl)cc(-n3nc(C#N)c(=O)[nH]c3=O)cc2Cl)n[nH]c1=O [Resmetirom, 2-[3,5-dichloro-4-[(6-oxo-5-propan-2-yl-1H-pyridazin-3-yl)oxy]phenyl]-3,5-dioxo-1,2,4-triazine-6-carbonitrile]
- Estradiol (female) LS Mean Difference ([1]; Resmetirom 80 mg from PBO): 15.9 ng/L
- Estradiol (male) LS Mean Difference ([1]; Resmetirom 80 mg from PBO): 9.0 ng/L
- FSH (female) LS Mean Difference ([1]; Resmetirom 80 mg from PBO): 0.79 mIU/mL
- FSH (male) LS Mean Difference ([1]; Resmetirom 80 mg from PBO): 1.1 mIU/mL
- Free testosterone (female) LS Mean Difference ([1]; Resmetirom 80 mg from PBO): 0 nmol/L
- Free testosterone (male) LS Mean Difference ([1]; Resmetirom 80 mg from PBO): 0.02 nmol/L
- LH (female) LS Mean Difference ([1]; Resmetirom 80 mg from PBO): −0.33 mIU/mL
- LH (male) LS Mean Difference ([1]; Resmetirom 80 mg from PBO): 1.8 mIU/mL
- SHBG (female) LS Mean Difference in % CFB ([1]; Resmetirom 80 mg from PBO): 177.4%
- SHBG (female) LS Mean Difference in CFB ([1]; Resmetirom 80 mg from PBO): 73.3 nmol/L
- SHBG (male) LS Mean Difference in % CFB ([1]; Resmetirom 80 mg from PBO): 107.3%
- SHBG (male) LS Mean Difference in CFB ([1]; Resmetirom 80 mg from PBO): 40.4 nmol/L
- SHBG LS Mean Difference in % CFB ([1]; Resmetirom 80 mg from PBO): 148.5%
- SHBG LS Mean Difference in CFB ([1]; Resmetirom 80 mg from PBO): 58.9 nmol/L
- Testosterone (female) LS Mean Difference ([1]; Resmetirom 80 mg from PBO): 0.15 µg/L
- Testosterone (male) LS Mean Difference ([1]; Resmetirom 80 mg from PBO): 2.2 µg/L
- Estradiol (female) LS Mean CFB (SE) ([1]; Resmetirom 80 mg): 17.7 (8.0) ng/L
- Estradiol (male) LS Mean CFB (SE) ([1]; Resmetirom 80 mg): 8.9 (1.3) ng/L
- FSH (female) LS Mean CFB (SE) ([1]; Resmetirom 80 mg): −0.54 (0.89) mIU/mL
- FSH (male) LS Mean CFB (SE) ([1]; Resmetirom 80 mg): 1.1 (0.24) mIU/mL
- Free testosterone (female) LS Mean CFB (SE) ([1]; Resmetirom 80 mg): 0 (0.001) nmol/L
- Free testosterone (male) LS Mean CFB (SE) ([1]; Resmetirom 80 mg): 0.04 (0.009) nmol/L
- LH (female) LS Mean CFB (SE) ([1]; Resmetirom 80 mg): −0.93 (0.69) mIU/mL
- LH (male) LS Mean CFB (SE) ([1]; Resmetirom 80 mg): 1.7 (0.30) mIU/mL
- SHBG (female) LS Mean % CFB (SE) ([1]; Resmetirom 80 mg): 193.0 (15.3) %
- SHBG (female) LS Mean CFB (SE) ([1]; Resmetirom 80 mg): 74.1 (6.0) nmol/L
- SHBG (male) LS Mean % CFB (SE) ([1]; Resmetirom 80 mg): 108.0 (11.2) %
- SHBG (male) LS Mean CFB (SE) ([1]; Resmetirom 80 mg): 41.9 (4.2) nmol/L
- SHBG LS Mean % CFB (SE) ([1]; Resmetirom 80 mg): 157.5 (10.2) %
- SHBG LS Mean CFB (SE) ([1]; Resmetirom 80 mg): 60.2 (4.0) nmol/L
- Testosterone (female) LS Mean CFB (SE) ([1]; Resmetirom 80 mg): 0.15 (0.019) ug/L
- Testosterone (male) LS Mean CFB (SE) ([1]; Resmetirom 80 mg): 2.6 (0.26) ug/L
- Estradiol (female) LS Mean Difference ([1]; Resmetirom 100 mg from PBO): 28.8 ng/L
- Estradiol (male) LS Mean Difference ([1]; Resmetirom 100 mg from PBO): 11.2 ng/L
- FSH (female) LS Mean Difference ([1]; Resmetirom 100 mg from PBO): 2.0 mIU/mL
- FSH (male) LS Mean Difference ([1]; Resmetirom 100 mg from PBO): 1.7 mIU/mL
- Free testosterone (female) LS Mean Difference ([1]; Resmetirom 100 mg from PBO): 0 nmol/L
- Free testosterone (male) LS Mean Difference ([1]; Resmetirom 100 mg from PBO): 0.01 nmol/L
- LH (female) LS Mean Difference ([1]; Resmetirom 100 mg from PBO): 1.4 mIU/mL
- LH (male) LS Mean Difference ([1]; Resmetirom 100 mg from PBO): 2.0 mIU/mL
- SHBG (female) LS Mean Difference in % CFB ([1]; Resmetirom 100 mg from PBO): 236.2%
- SHBG (female) LS Mean Difference in CFB ([1]; Resmetirom 100 mg from PBO): 93.2 nmol/L
- SHBG (male) LS Mean Difference in % CFB ([1]; Resmetirom 100 mg from PBO): 173.3%
- SHBG (male) LS Mean Difference in CFB ([1]; Resmetirom 100 mg from PBO): 59.3 nmol/L
- SHBG LS Mean Difference in % CFB ([1]; Resmetirom 100 mg from PBO): 208.4%
- SHBG LS Mean Difference in CFB ([1]; Resmetirom 100 mg from PBO): 79.4 nmol/L
- Testosterone (female) LS Mean Difference ([1]; Resmetirom 100 mg from PBO): 0.19 µg/L
- Testosterone (male) LS Mean Difference ([1]; Resmetirom 100 mg from PBO): 3.0 µg/L
- Estradiol (female) LS Mean CFB (SE) ([1]; Resmetirom 100 mg): 30.6 (8.3) ng/L
- Estradiol (male) LS Mean CFB (SE) ([1]; Resmetirom 100 mg): 11.0 (1.3) ng/L
- FSH (female) LS Mean CFB (SE) ([1]; Resmetirom 100 mg): 0.63 (0.92) mIU/mL
- FSH (male) LS Mean CFB (SE) ([1]; Resmetirom 100 mg): 1.7 (0.24) mIU/mL
- Free testosterone (female) LS Mean CFB (SE) ([1]; Resmetirom 100 mg): 0 (0.001) nmol/L
- Free testosterone (male) LS Mean CFB (SE) ([1]; Resmetirom 100 mg): 0.03 (0.009) nmol/L
- LH (female) LS Mean CFB (SE) ([1]; Resmetirom 100 mg): 0.80 (0.72) mIU/mL
- LH (male) LS Mean CFB (SE) ([1]; Resmetirom 100 mg): 1.9 (0.30) mIU/mL
- SHBG (female) LS Mean % CFB (SE) ([1]; Resmetirom 100 mg): 251.8 (16.0) %
- SHBG (female) LS Mean CFB (SE) ([1]; Resmetirom 100 mg): 94.0 (6.3) nmol/L
- SHBG (male) LS Mean % CFB (SE) ([1]; Resmetirom 100 mg): 174.0 (10.9) %
- SHBG (male) LS Mean CFB (SE) ([1]; Resmetirom 100 mg): 60.8 (4.1) nmol/L
- SHBG LS Mean % CFB (SE) ([1]; Resmetirom 100 mg): 217.4 (10.3) %
- SHBG LS Mean CFB (SE) ([1]; Resmetirom 100 mg): 80.7 (4.1) nmol/L
- Testosterone (female) LS Mean CFB (SE) ([1]; Resmetirom 100 mg): 0.19 (0.020) ug/L
- Testosterone (male) LS Mean CFB (SE) ([1]; Resmetirom 100 mg): 3.5 (0.25) ug/L
- Change in sex hormones from baseline ([1]; in vivo): unchanged, except for SHBG increases
